Measured values taken from ChEMBL document CHEMBL1150816, “Bioactive constituents of the roots of Licania intrapetiolaris” (J Nat Prod, 2001).
≈ marks a conversion by molar mass, not a printed value. Calls of active or inactive are those of the source. No cut-off for these calls is given here.

What was measured:
KB = test: Cytotoxicity against human KB cells after 72 hrs by spectrophotometric method; type: functional, cell-based
Aspergillus niger = test: Antifungal activity against Aspergillus niger after 24 hrs; type: functional

## CC(=O)OC(C)(C)/C=C/C(=O)[C@](C)(O)[C@H]1[C@H](O)C[C@@]2(C)[C@@H]3CC=C4[C@H](C[C@H](O)C(=O)C4(C)C)[C@]3(C)C(=O)C[C@]12C [CUCURBITACIN B]
KB
  EC50: 0.008 µg/mL (≈ 0.0143 µM)

## C[C@@H]1[C@H](O)[C@@H](C)/C=C/C=C/C=C/C=C/C=C/C=C/C=C/[C@H](O[C@@H]2O[C@H](C)[C@@H](O)[C@H](N)[C@@H]2O)C[C@@H]2O[C@](O)(C[C@@H](O)C[C@@H](O)[C@H](O)CC[C@@H](O)C[C@@H](O)CC(=O)O[C@H]1C)C[C@H](O)[C@H]2C(=O)O [AMPHOTERICIN B]
Aspergillus niger
  inhibition zone (IZ): 18 mm

## C=CC(=C)CC[C@]1(C)[C@H](C)C[C@H](O)[C@@]23C(=C[C@@H](OC(=O)c4ccc(O)cc4)C[C@@H]12)[C@@H](OC(C)=O)O[C@H]3OC(C)=O [INTRAPETACIN B]
KB
  EC50: 0.8 µg/mL (≈ 1.44 µM)
Aspergillus niger
  inhibition zone (IZ): 21 mm

## C=CC(=C)CC[C@]1(C)[C@H](C)C[C@H](O)[C@@]23C(=C[C@@H](OC(=O)c4ccc(O)cc4)C[C@@H]12)[C@@H](OC)O[C@H]3OC(C)=O [INTRAPETACIN A]
KB
  EC50: 2 µg/mL (≈ 3.8 µM)
Aspergillus niger
  inhibition zone (IZ): inactive
